Values belong to the compound of their own block, whether it stands above or below them.
How the values were obtained:
[1] = n-octanol/PBS distribution coefficient (shake-flask) of 177Lu-RedFols; assay type: physicochemical; settings: n-octanol/PBS pH 7.4
Procedure: The radiolytic stability of ^177Lu-RedFols (50 MBq/nmol) in PBS pH 7.4 was investigated at an activity concentration of 100 MBq in 500 µL over 24 h at room temperature. The n-octanol/PBS distribution coefficients (logD values) of the folate radioconjugates (50 MBq/nmol) were determined using the same shake-flask method as used for the ^177Lu-DOTA-ALBs, including statistical analysis (Supplementary Material, Section S4). […]
S4. n-Octanol/PBS Distribution Coefficient of 177Lu-DOTA-ALBs
Purpose: The n-octanol/PBS distribution coefficients (logD values) were determined for all 177Lu-DOTA-ALBs in order to assess their hydrophilic/hydrophobic properties.
Methods: The n-octanol/PBS distribution coefficients (logD values) of the 177Lu-DOTA-ALBs were determined as previously described. […] 4 . […]
The vials were vortexed vigorously for 1 min followed by centrifugation for 6 min at 560 rcf for phase separation. An aliquot was taken from each phase and measured in a γ-counter (Perkin Elmer, Wallac Wizard 1480, Waltham, MA, USA). The distribution coeffi-cients were calculated as the logarithm of the ratio of counts per minute (cpm) measured in the n-octanol phase relative to the cpm measured in the PBS phase. The results were listed as the average ± standard deviation (SD) of the data obtained from 2–3 independent experiments, each performed with five replicates. […]

[2] = system: KB tumor-bearing athymic nude mice; experiment: Biodistribution of 177Lu-RedFols in KB tumor-bearing mice; assay type: in vivo, mouse
Procedure: Athymic nude mice (Crl:CD1-Foxn^nu) were kept on a folate-deficient rodent diet (ssniff Spezialdiäten GmbH, Soest, Germany) for at least one week prior to inoculation with the tumor cells. Biodistribution studies were performed approx. two weeks after subcutaneous inoculation with KB tumor cells (5 × 10^6 in 100 μL PBS) (Supplementary Materials Section S12). […] Data were presented as the average ± SD of n = 3−4 mice.
Purpose: Biodistribution studies were performed in KB tumor-bearing athymic nude mice (Crl:CD1-Foxnnu) in order to investigate the tissue distribution profiles of the novel radioconjugates. The aim was to compare the impact of the two different albumin binders (4-(p-iodophenyl)butanoate unit vs. 5-(p-iodophenyl)pentanoate unit), and that of the in-corporation of an AMBA linker adjacent to the albumin binder on the distribution profile of the resulting folate radioconjugates.
Methods: The methods are described in the main article. The mice were sacrificed at […]

[3] = Blood clearance of 177Lu-DOTA-ALBs in FVB mice; settings: for Time to Reach 50% IA (T50%IA): blood activity, value at 3 min set as 100%
Procedure: Immunocompetent female mice (FVB) at the age of 5 to 6 weeks were purchased from Charles River Laboratories (Sulzfeld, Germany) and acclimatized upon arrival for at least 7 days. FVB mice were intravenously injected with ^177Lu-DOTA-ALBs (25 MBq, 1 nmol/mouse, 100 µL PBS containing 0.05% bovine serum albumin (BSA) and 25 μg L-ascorbic acid, n = 3−6 mice per radioligand) followed by the first blood sampling of 3 × 1 μL from a different tail vein 3 min after injection (set as t0). Additional blood samples were taken at defined time points after injection. All collected blood samples from individual mice were measured at the same time using a γ-counter (PerkinElmer Wallac Wizard 1480, Waltham, MA, USA) to obtain decay-corrected values. The counts were set in relation to the initial counts at t0 (set as 100%) to prepare clearance curves by plotting the percentage of retained activity in the blood (% IA) against the time. The blood clearance curves were investigated until the counts of the blood samples were below the linear detection range (Supplementary Materials Section S6). An analysis was performed using GraphPad Prism software (version 8.0) by fitting a non-linear regression curve (exponential, two-phase) to the data points to calculate the serum half-lives. The areas under the curves (AUC0–7days) were calculated by integrating the blood excretion curves over 7 days and setting into relation with the AUC0–7days value obtained for [^177Lu]Lu-DOTA-ALB-1 (set as 1.0) to obtain relative AUC0–7days values. […]
S6. Blood Clearance of 177Lu-DOTA-ALBs
Purpose: The 177Lu-labeled DOTA-ALBs were investigated in vivo in order to assess their blood clearance profile.
Methods: Female, immunocompetent FVB mice were obtained from Charles River Laboratories (Sulzfeld, Germany), at the age of 5–6 weeks and acclimatized for at least 7 days before the start of the in vivo studies. Blood clearance of 177Lu-labeled DOTA-ALBs were determined in n=3–6 mice per radioligand. The radiolabeled DOTA-ALBs ( 25 MBq/nmol) were formulated in PBS pH 7.4 containing 0.05% bovine serum albumin (BSA) and L-ascorbic acid (25 µg per 25 MBq) to prevent radiolytic degradation. Mice were intravenously injected with the respective 177Lu-labeled DOTA-ALB (25 MBq, 1 nmol, 100 µL per mouse). The blood clearance was determined by taking blood samples (3 × 1 µL) from the tail vein using 1 µL-capillaries at 3 min after injection (set as t0) as well as at various timepoints over the following 48 h. In the case of [177Lu]Lu-DOTA-ALB-1 and [177Lu]Lu-DOTA-ALB-3, blood sampling was additionally performed at later time points up to 3 and 7 days, respectively. The collected blood samples were measured in a γ-coun-ter (PerkinElmer, Wallac Wizard 1480, Waltham, MA, USA).

[4] = FVB mice, i.v., 25 MBq, 1 nmol, two-phase exponential fit of blood activity

logD Values [1]: −3.2 ± 0.1
Tumor-to-kidney ratio, comparison among all folate radioconjugates [2]: highest tumor-to-kidney ratio
Blood, accumulated activity ([2]; 1 h p.i.): 26 ± 3 % IA/g
Bone, accumulated activity ([2]; 1 h p.i.): 1.8 ± 0.5 % IA/g
Intestines, accumulated activity ([2]; 1 h p.i.): 2.6 ± 0.8 % IA/g
KB tumor, accumulated activity ([2]; 1 h p.i.): 8.5 ± 1.9 % IA/g
Kidneys, accumulated activity ([2]; 1 h p.i.): 8.0 ± 1.3 % IA/g
Liver, accumulated activity ([2]; 1 h p.i.): 3.7 ± 0.4 % IA/g
Lung, accumulated activity ([2]; 1 h p.i.): 11 ± 1 % IA/g
Muscle, accumulated activity ([2]; 1 h p.i.): 1.0 ± 0.1 % IA/g
Salivary glands, accumulated activity ([2]; 1 h p.i.): 5.2 ± 1.5 % IA/g
Spleen, accumulated activity ([2]; 1 h p.i.): 2.9 ± 0.4 % IA/g
Stomach, accumulated activity ([2]; 1 h p.i.): 1.9 ± 0.5 % IA/g
Tumor-to-blood ratio ([2]; 1 h p.i.): 0.33 ± 0.03
Tumor-to-kidney ratio ([2]; 1 h p.i.): 1.1 ± 0.1
Tumor-to-liver ratio ([2]; 1 h p.i.): 2.3 ± 0.4
Blood, accumulated activity ([2]; 4 h p.i.): 17 ± 1 % IA/g
Bone, accumulated activity ([2]; 4 h p.i.): 1.8 ± 0.1 % IA/g
Intestines, accumulated activity ([2]; 4 h p.i.): 2.0 ± 0.2 % IA/g
KB tumor, accumulated activity ([2]; 4 h p.i.): 18 ± 2 % IA/g
Kidneys, accumulated activity ([2]; 4 h p.i.): 7.6 ± 0.4 % IA/g
Liver, accumulated activity ([2]; 4 h p.i.): 3.0 ± 0.1 % IA/g
Lung, accumulated activity ([2]; 4 h p.i.): 8.2 ± 0.6 % IA/g
Muscle, accumulated activity ([2]; 4 h p.i.): 1.3 ± 0.1 % IA/g
Salivary glands, accumulated activity ([2]; 4 h p.i.): 4.2 ± 0.1 % IA/g
Spleen, accumulated activity ([2]; 4 h p.i.): 2.2 ± 0.2 % IA/g
Stomach, accumulated activity ([2]; 4 h p.i.): 1.5 ± 0.1 % IA/g
Tumor-to-blood ratio ([2]; 4 h p.i.): 1.1 ± 0.1
Tumor-to-kidney ratio ([2]; 4 h p.i.): 2.4 ± 0.2
Tumor-to-liver ratio ([2]; 4 h p.i.): 6.0 ± 0.8
Blood, accumulated activity ([2]; 24 h p.i.): 7.9 ± 0.7 % IA/g
Bone, accumulated activity ([2]; 24 h p.i.): 1.1 ± 0.1 % IA/g
Intestines, accumulated activity ([2]; 24 h p.i.): 0.96 ± 0.15 % IA/g
KB tumor, accumulated activity ([2]; 24 h p.i.): 39 ± 4 % IA/g
Kidneys, accumulated activity ([2]; 24 h p.i.): 12 ± 2 % IA/g
Liver, accumulated activity ([2]; 24 h p.i.): 1.9 ± 0.3 % IA/g
Lung, accumulated activity ([2]; 24 h p.i.): 4.1 ± 0.1 % IA/g
Muscle, accumulated activity ([2]; 24 h p.i.): 1.0 ± 0.1 % IA/g
Salivary glands, accumulated activity ([2]; 24 h p.i.): 4.0 ± 1.1 % IA/g
Spleen, accumulated activity ([2]; 24 h p.i.): 2.2 ± 0.1 % IA/g
Stomach, accumulated activity ([2]; 24 h p.i.): 1.1 ± 0.1 % IA/g
Tumor-to-blood ratio ([2]; 24 h p.i.): 5.0 ± 0.4
Tumor-to-kidney ratio ([2]; 24 h p.i.): 3.3 ± 0.4
Tumor-to-liver ratio ([2]; 24 h p.i.): 21 ± 1
Compound: CN1c2c(nc(N)[nH]c2=O)NC[C@H]1CNc1ccc(C(=O)N[C@@H](CCC(=O)N[C@@H](CCCCNC(=O)CN2CCN(CC(=O)O)CCN(CC(=O)O)CCN(CC(=O)O)CC2)C(=O)N[C@@H](CCCCNC(=O)c2ccc(CNC(=O)CCCc3ccc(I)cc3)cc2)C(=O)O)C(=O)O)cc1 [[^177Lu]Lu-6R-RedFol-3, metal not drawn]

Compound: O=C(O)CN1CCN(CC(=O)O)CCN(CC(=O)NCCC(=O)N[C@@H](CCCCNC(=O)c2ccc(CNC(=O)CCCCc3ccc(I)cc3)cc2)C(=O)O)CCN(CC(=O)O)CC1.[177Lu] [[^177Lu]Lu-DOTA-ALB-25]
Rel. Blood AUC0–7days ([3]; mouse, in vivo): 0.3
% Phase a ([3]; mouse, in vivo, iv): 41%
% Phase b ([3]; mouse, in vivo, iv): 59%
Blood AUC0–7days ([3]; mouse, in vivo, iv): 425 % IA× h
Half-Life Phase a ([3]; mouse, in vivo, iv): 0.7 h
Half-Life Phase b ([3]; mouse, in vivo, iv): 4.5 h

Compound: O=C(O)CN1CCN(CC(=O)O)CCN(CC(=O)NCCC(=O)N[C@@H](CCCCNC(=O)CCCc2ccc(I)cc2)C(=O)O)CCN(CC(=O)O)CC1.[177Lu] [[^177Lu]Lu-DOTA-ALB-1]
Rel. Blood AUC0–7days ([3]; mouse, in vivo): 1.0
% Phase a ([3]; mouse, in vivo, iv): 33%
% Phase b ([3]; mouse, in vivo, iv): 67%
Blood AUC0–7days ([3]; mouse, in vivo, iv): 1500 % IA× h
Half-Life Phase a ([3]; mouse, in vivo, iv): 0.006 h
Half-Life Phase b ([3]; mouse, in vivo, iv): 16 h

Compound: O=C(O)CN1CCN(CC(=O)O)CCN(CC(=O)NCCC(=O)N[C@@H](CCCCNC(=O)c2ccc(CNC(=O)CCCc3ccc(I)cc3)cc2)C(=O)O)CCN(CC(=O)O)CC1.[177Lu] [[^177Lu]Lu-DOTA-ALB-3]
Retention of activity in the blood ([3]; FVB mice, 0 h p.i. (t0 set as 100%)): 100 % IA
Retention of activity in the blood ([3]; FVB mice, 1 h p.i.): 81 ± 9 % IA
Retention of activity in the blood ([3]; FVB mice, 2 h p.i.): 74 ± 16 % IA
Retention of activity in the blood ([3]; FVB mice, 4 h p.i.): 71 ± 11 % IA
Retention of activity in the blood ([3]; FVB mice, 8 h p.i.): 66 ± 10 % IA
Retention of activity in the blood ([3]; FVB mice, 24 h p.i.): 45 ± 7 % IA
Retention of activity in the blood ([3]; FVB mice, 48 h p.i.): 28 ± 5 % IA
Retention of activity in the blood ([3]; FVB mice, 72 h p.i.): 19 ± 2 % IA
Retention of activity in the blood ([3]; FVB mice, 120 h p.i.): 7 ± 2 % IA
Retention of activity in the blood ([3]; FVB mice, 144 h p.i.): 5 ± 1 % IA
Retention of activity in the blood ([3]; FVB mice, 168 h p.i.): 3 ± 1 % IA
Half-Life Phase a [3, 4]: 0.5 h
Half-Life Phase b [3, 4]: 34 h
Time to Reach 50% IA (T50%IA) ([3]; FVB mice, i.v.): ~ 24 h
Time to Reach 50% IA (T50%IA) ([3]; FVB mice, i.v., listed as 3): ~24 h
Blood AUC0–7days ([3]; FVB mice, i.v., decay-corrected, over 7 days): 3617 % IA× h
% Phase a ([3]; FVB mice, i.v., share of Phase a in blood excretion curve): 23%
% Phase b ([3]; FVB mice, i.v., share of Phase b in blood excretion curve): 77%

Compound: O=C(O)CN1CCN(CC(=O)O)CCN(CC(=O)NCCC(=O)N[C@@H](CCCCNC(=O)CCCCc2ccc(I)cc2)C(=O)O)CCN(CC(=O)O)CC1.[177Lu] [[^177Lu]Lu-DOTA-ALB-24]
Rel. Blood AUC0–7days ([3]; mouse, in vivo): 0.08
% Phase a ([3]; mouse, in vivo, iv): 99%
% Phase b ([3]; mouse, in vivo, iv): 1%
Blood AUC0–7days ([3]; mouse, in vivo, iv): 119 % IA× h
Half-Life Phase a ([3]; mouse, in vivo, iv): 0.8 h
Half-Life Phase b ([3]; mouse, in vivo, iv): 8.9 h
